Here are results for 17 molecules from US11166959B2, “Isofuranone compounds useful as HPK1 inhibitors” (BRISTOL-MYERS SQUIBB COMPANY, priority 2017, dated 2021).

Like-named read-outs stand apart in the source and are kept apart here. Bounds are passed on as bounds.

In assay [1] the target is T1, HPK1 (Homo sapiens, UniProt Q92918).
T1 construct: purchased SignalChem M23-11G
T1 sequence (Q92918 1-346 limits assumed): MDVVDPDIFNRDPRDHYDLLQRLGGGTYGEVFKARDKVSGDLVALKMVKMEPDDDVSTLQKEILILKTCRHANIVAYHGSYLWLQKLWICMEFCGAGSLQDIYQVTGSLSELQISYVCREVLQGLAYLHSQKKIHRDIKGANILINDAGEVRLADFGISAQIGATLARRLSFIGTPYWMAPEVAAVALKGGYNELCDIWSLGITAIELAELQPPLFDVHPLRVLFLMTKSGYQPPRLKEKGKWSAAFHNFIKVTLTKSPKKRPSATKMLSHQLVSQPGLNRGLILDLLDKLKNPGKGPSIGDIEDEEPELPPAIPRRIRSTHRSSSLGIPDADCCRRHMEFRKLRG
As to the kind of experiment: HPK1 Inhibition Assay (kinase reaction, Caliper capillary electrophoresis). It counts as biochemical. Particulars: for IRAK4/HPK1 Ratio: ratio of the IRAK4 IC50 value to the HPK1 IC50 value. Here is the method:
The reactions were incubated out for three hours and quenched with 1 mM EDTA solution. The reaction incubation time and enzyme concentration were optimized to obtain a maximum peptide substrate conversion of 20-30%. The reaction mixtures were analyzed by capillary electrophoresis on a Caliper LabChip EZ Reader to resolve phosphorylated and unphosphorylated peptide species and determine peptide substrate conversion. […] The compounds were dissolved in DMSO and evaluated at 11 concentrations to determine the IC50 values.

Assay [2] concerns the target T2, IRAK4 (Homo sapiens, UniProt Q9NWZ3).
T2 construct: 1 nM IRAK4 (160-460); purchased SignalChem M24016
T2 sequence (Q9NWZ3 160-460): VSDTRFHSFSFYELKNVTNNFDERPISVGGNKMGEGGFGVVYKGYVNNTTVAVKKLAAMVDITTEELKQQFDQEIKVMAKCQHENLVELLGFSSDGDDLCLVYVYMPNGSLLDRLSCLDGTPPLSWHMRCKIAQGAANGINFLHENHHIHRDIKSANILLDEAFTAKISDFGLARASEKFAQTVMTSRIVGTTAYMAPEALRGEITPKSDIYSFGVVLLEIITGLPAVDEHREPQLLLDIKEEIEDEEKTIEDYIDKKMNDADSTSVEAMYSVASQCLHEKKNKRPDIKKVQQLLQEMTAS
Kind of assay: IRAK4 Inhibition Assay (kinase reaction, Caliper capillary electrophoresis). Type of assay: biochemical. As to conditions: 500 μM ATP, 11 concentrations. Here is the method:
The reactions were incubated out for three hours and quenched with 1 mM EDTA solution. The reaction incubation time and enzyme concentration were optimized to obtain a maximum peptide substrate conversion of 20-30%. The reaction mixtures were analyzed by capillary electrophoresis on a Caliper LabChip EZ Reader to resolve phosphorylated and unphosphorylated peptide species and determine peptide substrate conversion. […] The compounds were dissolved in DMSO and evaluated at 11 concentrations to determine IC50 values.

[3] abbreviates: 0.625 nM HPK1, 22 μM ATP, 11 concentrations, read-out: HPK1 IC50.

As a reminder, the IC50 is the concentration that inhibits the measured activity by half. Consider `CC1(C)OC(=O)c2ccc(Nc3ncc(-c4nnc(-c5cccnn5)o4)c(N[C@H](CO)c4ccccc4)n3)cc21` [Example 67, 5-[(4-{[(1S)-2-hydroxy-1-phenylethyl]amino}-5-[5-(pyridazin-3-yl)-1,3,4-oxadiazol-2-yl]pyrimidin-2-yl)amino]-3,3-dimethyl-1,3-dihydro-2-benzofuran-1-one], for which the IC50 in assay [1] (setting [3]) was less than 50 nM; in assay [2], 50 to 250 nM. The “IRAK4/HPK1 Ratio” value in assay [1] was “B (B=10 to 50)”.
For `Cc1noc(-c2cnc(Nc3ccc4c(c3)C(C)(C)OC4=O)nc2NCc2ccccc2C(C)(C)O)n1` [Example 72, 5-{[4-({[2-(2-hydroxypropan-2-yl)phenyl]methyl}amino)-5-(3-methyl-1,2,4-oxadiazol-5-yl)pyrimidin-2-yl]amino}-3,3-dimethyl-1,3-dihydro-2-benzofuran-1-one] the same measures were 50 to 250 nM, 250 to 1000 nM and “B (B=10 to 50)”.
For the molecule `CC1(C)OC(=O)c2ccc(Nc3ncc(-c4nc(C5CCOCC5)no4)c(N[C@H](CO)c4ccccc4)n3)cc21` [Example 33, 5-[(4-{[(1S)-2-hydroxy-1-phenylethyl]amino}-5-[3-(oxan-4-yl)-1,2,4-oxadiazol-5-yl]pyrimidin-2-yl)amino]-3,3-dimethyl-1,3-dihydro-2-benzofuran-1-one], the 50% inhibitory concentration (IC50) in assay [1] (setting [3]) was less than 50 nM; in assay [2] it was 50 to 250 nM. Further, the “IRAK4/HPK1 Ratio” value in assay [1] is on record as “C (C=>50)”.
The like results for `Cc1noc(-c2cnc(Nc3ccc4c(c3)C(C)(C)OC4=O)nc2Nc2ccc3[nH]ncc3c2)n1` [Example 74, 5-({4-[(1H-indazol-5-yl)amino]-5-(3-methyl-1,2,4-oxadiazol-5-yl)pyrimidin-2-yl}amino)-3,3-dimethyl-1,3-dihydro-2-benzofuran-1-one] were, in that order, 50 to 250 nM, 250 to 1000 nM and “B (B=10 to 50)”.
For `CC(C)CNC(=O)c1cnc(Nc2ccc3c(c2)C(C)(C)OC3=O)nc1N[C@H](CO)c1ccccc1` [Example 12, 2-[(3,3-dimethyl-1-oxo-1,3-dihydro-2-benzofuran-5-yl)amino]-4-{[(1S)-2-hydroxy-1-phenylethyl]amino}-N-(2-methylpropyl)pyrimidine-5-carboxamide] the same measures were less than 50 nM, 250 to 1000 nM and “B (B=10 to 50)”.
As for `CC1(C)OC(=O)c2ccc(Nc3ncc(-c4nc(-c5ccccn5)no4)c(N[C@H](CO)c4ccccc4)n3)cc21` [Example 42, 5-[(4-{[(1S)-2-hydroxy-1-phenylethyl]amino}-5-[3-(pyridin-2-yl)-1,2,4-oxadiazol-5-yl]pyrimidin-2-yl)amino]-3,3-dimethyl-1,3-dihydro-2-benzofuran-1-one], the IC50 is less than 50 nM in assay [1] (setting [3]) and 250 to 1000 nM in assay [2]. The “IRAK4/HPK1 Ratio” value in assay [1] was “C (C=>50)”.
For the molecule `CC1(C)OC(=O)c2ccc(Nc3ncc(-c4nc(C5CC(F)(F)C5)no4)c(N[C@H](CO)c4ccccc4)n3)cc21` [Example 40, 5-({5-[3-(3,3-difluorocyclobutyl)-1,2,4-oxadiazol-5-yl]-4-{[(1S)-2-hydroxy-1-phenylethyl]amino}pyrimidin-2-yl}amino)-3,3-dimethyl-1,3-dihydro-2-benzofuran-1-one], the IC50 in assay [1] (setting [3]) is less than 50 nM; in assay [2], 250 to 1000 nM. In assay [1], the “IRAK4/HPK1 Ratio” value was “C (C=>50)”.
Take `Cc1ccccc1CNC(=O)c1cnc(Nc2ccc3c(c2)C(C)(C)OC3=O)nc1N[C@H](CO)c1ccccc1` [Example 16, 2-[(3,3-dimethyl-1-oxo-1,3-dihydro-2-benzofuran-5-yl)amino]-4-{[(1S)-2-hydroxy-1-phenylethyl]amino}-N-[(2-methylphenyl)methyl]pyrimidine-5-carboxamide]: the half-inhibitory concentration (IC50) lay in the range of 50 to 250 nM in assay [1] (setting [3]) and 250 to 1000 nM in assay [2]. The “IRAK4/HPK1 Ratio” value in assay [1] is given as “B (B=10 to 50)”.
On to `CC1(C)OC(=O)c2ccc(Nc3ncc(C(=O)NCCCN4CCOCC4)c(N[C@H](CO)c4ccccc4)n3)cc21` [Example 7, 2-[(3,3-dimethyl-1-oxo-1,3-dihydro-2-benzofuran-5-yl)amino]-4-{[(1S)-2-hydroxy-1-phenylethyl]amino}-N-[3-(morpholin-4-yl)propyl]pyrimidine-5-carboxamide], for which the IC50 in assay [1] (setting [3]) was less than 50 nM; in assay [2], 250 to 1000 nM. Also, the “IRAK4/HPK1 Ratio” value in assay [1] was “B (B=10 to 50)”.
For `CCCCc1noc(-c2cnc(Nc3ccc4c(c3)C(C)(C)OC4=O)nc2N[C@H](CO)c2ccccc2)n1` [Example 36, 5-{[5-(3-butyl-1,2,4-oxadiazol-5-yl)-4-{[(1S)-2-hydroxy-1-phenylethyl]amino}pyrimidin-2-yl]amino}-3,3-dimethyl-1,3-dihydro-2-benzofuran-1-one] the same measures were less than 50 nM, 250 to 1000 nM and “C (C=>50)”.
The like results for `CC1(C)OC(=O)c2ccc(Nc3ncc(-c4nnc(C5(OC(=O)N6CC(F)(F)C6)CC5)o4)c(N[C@H](CO)c4ccccc4)n3)cc21` [Example 70, 1-(5-{2-[(3,3-dimethyl-1-oxo-1,3-dihydro-2-benzofuran-5-yl)amino]-4-{[(1S)-2-hydroxy-1-phenylethyl]amino}pyrimidin-5-yl}-1,3,4-oxadiazol-2-yl)cyclopropyl 3,3-difluoroazetidine-1-carboxylate] were, in that order, 50 to 250 nM, 250 to 1000 nM and “B (B=10 to 50)”.
For `CC1(C)OC(=O)c2ccc(Nc3ncc(C(=O)NN)c(N[C@H](CO)c4ccccc4)n3)cc21` [Example 51, 2-[(3,3-dimethyl-1-oxo-1,3-dihydro-2-benzofuran-5-yl)amino]-4-{[(1S)-2-hydroxy-1-phenylethyl]amino}pyrimidine-5-carbohydrazide] the same measures were less than 50 nM, 250 to 1000 nM and “C (C=>50)”.
As for `CC1(C)OC(=O)c2ccc(Nc3ncc(C(=O)N[C@H]4C[C@@H]4c4ccccc4)c(N[C@H](CO)c4ccccc4)n3)cc21` [Example 17, 2-[(3,3-dimethyl-1-oxo-1,3-dihydro-2-benzofuran-5-yl)amino]-4-{[(1S)-2-hydroxy-1-phenylethyl]amino}-N-[(1S,2R)-2-phenylcyclopropyl]pyrimidine-5-carboxamide], the concentration for half-maximal inhibition (IC50) was 50 to 250 nM in assay [1] (setting [3]) and 250 to 1000 nM in assay [2]. Further, the “IRAK4/HPK1 Ratio” value in assay [1] is listed as “B (B=10 to 50)”.
The like results for `CC1(C)OC(=O)c2ccc(Nc3ncc(-c4nc(C5(CO)CC5)no4)c(N[C@H](CO)c4ccccc4)n3)cc21` [Example 38, 5-[(4-{[(1S)-2-hydroxy-1-phenylethyl]amino}-5-{3-[1-(hydroxymethyl)cyclopropyl]-1,2,4-oxadiazol-5-yl}pyrimidin-2-yl)amino]-3,3-dimethyl-1,3-dihydro-2-benzofuran-1-one] were, in that order, less than 50 nM, 50 to 250 nM and “C (C=>50)”.
Consider `CN(C)CCCNC(=O)c1cnc(Nc2ccc3c(c2)C(C)(C)OC3=O)nc1N[C@H](CO)c1ccccc1` [Example 5, 2-[(3,3-dimethyl-1-oxo-1,3-dihydro-2-benzofuran-5-yl)amino]-N-[3-(dimethylamino)propyl]-4-{[(1S)-2-hydroxy-1-phenylethyl]amino}pyrimidine-5-carboxamide], for which the IC50 in assay [1] (setting [3]) was less than 50 nM; in assay [2], 250 to 1000 nM. For the same molecule, in assay [1], the “IRAK4/HPK1 Ratio” value is listed as “B (B=10 to 50)”.
Regarding `CC1(C)OC(=O)c2ccc(Nc3ncc(C(=O)NNC(=O)C4CC4)c(N[C@H](CO)c4ccccc4)n3)cc21` [Example 62, (S)—N′-(cyclopropanecarbonyl)-2-((3,3-dimethyl-1-oxo-1,3-dihydroisobenzofuran-5-yl)amino)-4-((2-hydroxy-1-phenylethyl)amino)pyrimidine-5-carbohydrazide], the values for the IC50 in assay [1] (setting [3]) and in assay [2] were less than 50 nM and 250 to 1000 nM, respectively. In addition, the “IRAK4/HPK1 Ratio” value in assay [1] was “C (C=>50)”.
Take `CC1(C)OC(=O)c2ccc(Nc3ncc(C(=O)NC[C@@]4(O)CN5CCC4CC5)c(N[C@H](CO)c4ccccc4)n3)cc21` [Example 24, 2-[(3,3-dimethyl-1-oxo-1,3-dihydro-2-benzofuran-5-yl)amino]-N-{[(3R)-3-hydroxy-1-azabicyclo[2.2.2]octan-3-yl]methyl}-4-{[(1S)-2-hydroxy-1-phenylethyl]amino}pyrimidine-5-carboxamide]: the results for the IC50 in assay [1] and in assay [2] were less than 50 nM and 250 to 1000 nM, respectively. The “IRAK4/HPK1 Ratio” value in assay [1] was “B (B=10 to 50)”.
